The numbers were not newly measured in patent US5683715A, “Taxane-containing phosphatidylcholine liposomes” (The Liposome Company, Inc., priority 1995, dated 1997), which cites them from elsewhere.

In data set [1] the test system is ovarian and breast cancers, malignant melanoma, colon cancer, leukemias and lung cancer. To be noted: literature.
Data set [2] deals with tubulin. To be noted: Schiff and Horowitz 1980.

For `CC(=O)O[C@H]1C(=O)[C@@]2(C)[C@H]([C@H](OC(=O)c3ccccc3)[C@]3(O)C[C@H](OC(=O)[C@H](O)[C@@H](NC(=O)c4ccccc4)c4ccccc4)C(C)=C1C3(C)C)[C@]1(OC(C)=O)CO[C@@H]1C[C@@H]2O` [Paclitaxel], in data set [1], the Activity against cancers result is “activity against ovarian and breast cancers, as well as against malignant melanoma, colon cancer, leukemias and lung cancer”. Also, the “Concentrations of optimal effect on polymerization and stabilization of microtubules” value in data set [2] was “near stoichiometric equivalence with tubulin dimers”.
